Source: patent US20220289768A1, “HETEROCYCLIC COMPOUNDS AS STING MODULATORS” (BEIGENE, LTD., priority 2019, published 2022)

What was measured:
[1] = system: hSTING-R232 in THP1-Dual KI-hSTING-R232 Cells; assay: STING cellular assay in THP1-Dual KI-hSTING-R232 cells (Lucia luciferase IRF reporter); format: cell-based; details: Homo sapiens, 24 h incubation, QUANTI-Luc readout, 1 nM-10 μM
Excerpt: (§1) STING Cellular Assay in THP1-Dual™ Cells
(§2) THP1-Dual™ cells were derived from the human THP-1 monocyte cell line by stable integration of two inducible reporter constructs. THP1-Dual™ cells feature the Lucia luciferase gene, a new secreted luciferase reporter gene, under the control of an ISG54 (interferon-stimulated gene) minimal promoter in conjunction with five interferon (IFN)-stimulated response elements. THP1-Dual™ cells also express a secreted embryonic alkaline phosphatase (SEAP) reporter gene driven by an IFN-β minimal promoter fused to five copies of the NF-κB consensus transcriptional response element and three copies of the c-Rel binding site. As a result, THP1-Dual™ cells allow the simultaneous study of the NF-κB pathway, by monitoring the activity of SEAP, and the interferon regulatory factor (IRF) pathway, by assessing the activity of Lucia luciferase. Both reporter proteins are readily measurable in the cell culture supernatant when using QUANTI-Blue™, a SEAP detection reagent, and QUANTI-Luc™, a Lucia luciferase detection reagent.
(§3) Distinct variants of human STING (hSTING) that affect CDN recognition and signal transduction have been identified: • R232 (R71-G230-R232-R293): the most prevalent in the human population (˜60%). Referred as the “wild-type” or 232R-RGR allele2. • HAQ (H71-A230-R232-Q293): contains three non-synonymous single nucleotide substitutions; R71H, G230A and R293Q. This allele, found in ˜20% of the population, is less sensitive to CDNs than the “wild-type” allele2.
(§4) Growth Medium: RPMI 1640, 2 mM L-glutamine, 25 mM HEPES, 10% heat-inactivated fetal bovine serum (30 min at 56° C.), 100 μg/mL Normocin™, Pen-Strep (100 U/mL-100 μg/mL)
(§5) 1. After cells have recovered (after at least one passage), maintain and subculture the cells in growth medium. (To maintain selection pressure, add 10 μg/mL of blasticidin and 100 μg/mL of Zeocin™ to the growth medium every other passage.) 2. Pass the cells every 3 days by inoculating 7×10^5 cells/ml.
(§6) Experimental Procedure • 1. Add 180 μL of cell suspension (˜100,000 cells) per well of a flat-bottom 96-well plate (costar 3599). • 2. Then compounds were added with serial dilutions over 10 points with a 1 nM-10 μM final concentration range in 0.10% DMSO/growth medium. • 3. Incubate the plate for 24 h at 37° C., 5% CO2. • 4. Set the BMG PHERAstar FSX instrument with the following parameters: 50 μL of injection, end-point measurement with a 4 second start time and 0.1 second reading time. • 5. Pipet 10 μL of THP1-Dual™ cell culture medium per well into a 96-well white opaque plate (Corning 3903). • 6. Add 50 μL of QUANTI-Luc assay solution to each well and gently tap the plate several times to mix. Proceed immediately with the measurement.

[2] = system: STING in THP1-Dual Cells; assay: STING cellular assay in THP1-Dual cells (Lucia luciferase IRF reporter); format: cell-based; details: Homo sapiens, 24 h incubation, QUANTI-Luc readout, 1 nM-10 μM
Excerpt: as §1, §2, §3, §4, §5, §6

| EC50 [1] [nM] | EC50 [2] [nM] | SMILES |
| --- | --- | --- |
| 3.7 | 182 | CCn1nc(C)cc1-c1nc(Cl)c2c3cc(C(N)=O)cc(OC)c3n(C/C=C/Cn3c4nc(-c5cc(C)nn5CC)nc(Cl)c4c4cc(C(N)=O)cc(OCCCN5CCOCC5)c43)c2n1 [Example 3, (E)-9-(4-(6-carbamoyl-4-chloro-2-(1-ethyl-3-methyl-1H-pyrazol-5-yl)-8-(3-morpholinopropoxy)-9H-pyrimido[4,5-b]indol-9-yl)but-2-en-1-yl)-4-chloro-2-(1-ethyl-3-methyl-1H-pyrazol-5-yl)-8-methoxy-9H-pyrimido[4,5-b]indole-6-carboxamide; trifluoroacetic acid] |
| 3230 | > 10000 | CCn1nc(C)cc1-c1nc(O)c2c3cc(C(N)=O)cc(OC)c3n(C/C=C/Cn3c4nc(-c5cc(C)nn5CC)nc(O)c4c4cc(C(N)=O)cc(OCCCN5CCOCC5)c43)c2n1 [Example 2, (E)-9-(4-(6-carbamoyl-2-(1-ethyl-3-methyl-1H-pyrazol-5-yl)-4-hydroxy-8-(3-morpholinopropoxy)-9H-pyrimido[4,5-b]indol-9-yl)but-2-en-1-yl)-2-(1-ethyl-3-methyl-1H-pyrazol-5-yl)-4-hydroxy-8-methoxy-9H-pyrimido[4,5-b]indole-6-carboxamide; trifluoroacetic acid] |
| 1.5 | 3.5 | CCn1nc(C)cc1-c1ncc2c3cc(C(N)=O)cc(OC)c3n(C/C=C/Cn3c4nc(-c5cc(C)nn5CC)ncc4c4cc(C(N)=O)cc(OCCCN5CCOCC5)c43)c2n1 [Example 4, (E)-9-(4-(6-carbamoyl-2-(1-ethyl-3-methyl-1H-pyrazol-5-yl)-8-(3-morpholinopropoxy)-9H-pyrimido[4,5-b]indol-9-yl)but-2-en-1-yl)-2-(1-ethyl-3-methyl-1H-pyrazol-5-yl)-8-methoxy-9H-pyrimido[4,5-b]indole-6-carboxamide; formic acid] |
| > 10000 | > 10000 | CCn1nc(C)cc1-c1nc(Cl)c2c3cc(C(N)=O)cc(OC)c3n(C/C=C/Cn3c4nc(-c5cc(C)nn5CC)nc(Cl)c4c4cc(C#N)cc(OCCCN5CCOCC5)c43)c2n1 [Example 1, (E)-4-chloro-9-(4-(4-chloro-6-cyano-2-(1-ethyl-3-methyl-1H-pyrazol-5-yl)-8-(3-morpholinopropoxy)-9H-pyrimido[4,5-b]indol-9-yl)but-2-en-1-yl)-2-(1-ethyl-3-methyl-1H-pyrazol-5-yl)-8-methoxy-9H-pyrimido[4,5-b]indole-6-carboxamide] |
